By IC50 is commonly meant the concentration that gives 50% inhibition.

The text below walks through data of patent US20240400577A1, “MODULATORS OF PROTEIN KINASES” (VIBLIOME THERAPEUTICS, LLC, priority 2021, published 2024).

What all share (assay): Kinase panel enzymatic inhibition assay (Nanosyn)
Holding throughout (type): biochemical

Assay [1] has as its target T1, JAK3 (Homo sapiens, UniProt P52333).
T1 construct: Nanosyn (contract laboratory that ran the panel)
T1 sequence (P52333 1-1124): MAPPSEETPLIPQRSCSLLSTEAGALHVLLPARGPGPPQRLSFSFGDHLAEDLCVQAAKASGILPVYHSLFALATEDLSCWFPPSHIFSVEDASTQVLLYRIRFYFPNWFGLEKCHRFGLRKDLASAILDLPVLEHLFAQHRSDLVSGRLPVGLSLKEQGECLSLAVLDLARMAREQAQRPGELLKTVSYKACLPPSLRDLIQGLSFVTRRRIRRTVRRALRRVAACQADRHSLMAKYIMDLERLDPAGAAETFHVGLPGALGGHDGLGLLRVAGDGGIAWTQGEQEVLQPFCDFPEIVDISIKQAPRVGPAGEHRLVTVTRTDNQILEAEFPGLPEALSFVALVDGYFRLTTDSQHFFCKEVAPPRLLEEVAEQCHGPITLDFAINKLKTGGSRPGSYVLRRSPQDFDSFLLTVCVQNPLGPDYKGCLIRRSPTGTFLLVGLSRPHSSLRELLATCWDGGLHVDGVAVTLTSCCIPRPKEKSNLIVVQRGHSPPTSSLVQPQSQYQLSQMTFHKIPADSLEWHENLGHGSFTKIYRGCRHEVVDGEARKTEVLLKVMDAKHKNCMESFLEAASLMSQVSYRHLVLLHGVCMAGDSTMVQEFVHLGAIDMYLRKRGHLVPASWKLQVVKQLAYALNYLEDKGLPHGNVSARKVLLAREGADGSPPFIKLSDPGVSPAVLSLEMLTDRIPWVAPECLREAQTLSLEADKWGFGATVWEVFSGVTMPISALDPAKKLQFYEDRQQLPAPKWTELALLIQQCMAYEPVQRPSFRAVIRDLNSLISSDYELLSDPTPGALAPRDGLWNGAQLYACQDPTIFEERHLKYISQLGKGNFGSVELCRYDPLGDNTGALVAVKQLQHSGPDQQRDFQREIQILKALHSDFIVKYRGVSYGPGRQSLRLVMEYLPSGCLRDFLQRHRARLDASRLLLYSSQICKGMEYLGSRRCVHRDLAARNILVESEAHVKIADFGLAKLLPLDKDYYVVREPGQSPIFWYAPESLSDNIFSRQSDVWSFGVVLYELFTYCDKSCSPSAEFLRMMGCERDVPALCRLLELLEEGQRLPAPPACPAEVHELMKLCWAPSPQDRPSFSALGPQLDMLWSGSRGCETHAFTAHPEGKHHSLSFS
The following applies: ATP at Km; 30-minute pre-incubation; read-out: kinase inhibition in terms of IC50, JAK3. The essentials:
(§1)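 Single-point screen: compound 5 μM, ATP at Km per kinase, 30 min pre-incubation. Readout by mobility shift (Caliper LabChip), ADP detection or TR-fluorescence. Reported as % inhibition or IC50.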

For assay [2], the target named is T2, AXL (Homo sapiens, UniProt P30530).
T2 construct: Nanosyn (contract laboratory that ran the panel)
T2 sequence (P30530 26-894): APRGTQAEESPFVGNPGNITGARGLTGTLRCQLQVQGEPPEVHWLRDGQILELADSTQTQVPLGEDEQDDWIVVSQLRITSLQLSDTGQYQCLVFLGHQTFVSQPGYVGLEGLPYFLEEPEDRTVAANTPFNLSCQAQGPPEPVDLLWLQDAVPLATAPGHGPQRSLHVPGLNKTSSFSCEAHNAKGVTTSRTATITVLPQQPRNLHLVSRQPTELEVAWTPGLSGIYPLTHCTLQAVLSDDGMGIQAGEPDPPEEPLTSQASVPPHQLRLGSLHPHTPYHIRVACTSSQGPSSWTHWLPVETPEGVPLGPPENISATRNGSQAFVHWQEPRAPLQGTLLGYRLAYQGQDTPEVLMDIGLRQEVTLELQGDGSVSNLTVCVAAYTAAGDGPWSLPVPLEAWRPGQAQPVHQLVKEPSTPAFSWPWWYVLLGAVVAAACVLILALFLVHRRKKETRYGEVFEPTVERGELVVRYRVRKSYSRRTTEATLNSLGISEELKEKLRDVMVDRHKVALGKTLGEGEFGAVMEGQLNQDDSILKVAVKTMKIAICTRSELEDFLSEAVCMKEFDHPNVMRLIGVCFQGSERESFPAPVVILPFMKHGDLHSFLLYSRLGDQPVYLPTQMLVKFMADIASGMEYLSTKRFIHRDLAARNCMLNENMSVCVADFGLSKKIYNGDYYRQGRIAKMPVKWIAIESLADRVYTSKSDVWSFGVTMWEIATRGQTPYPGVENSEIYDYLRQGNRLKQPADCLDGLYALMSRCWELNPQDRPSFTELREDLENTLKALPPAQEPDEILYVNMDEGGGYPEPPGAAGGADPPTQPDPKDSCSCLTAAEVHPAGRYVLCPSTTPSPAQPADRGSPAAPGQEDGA
Conditions: ATP at Km; 30-minute pre-incubation; read-out: kinase inhibition in terms of IC50, AXL. The method in brief: as §1

Assay [3] addresses T3, TAK1-TAB1 (Homo sapiens, UniProt O43318).
T3 construct: purchased Nanosyn
T3 sequence (O43318 with tags, fused parts or gaps limits assumed): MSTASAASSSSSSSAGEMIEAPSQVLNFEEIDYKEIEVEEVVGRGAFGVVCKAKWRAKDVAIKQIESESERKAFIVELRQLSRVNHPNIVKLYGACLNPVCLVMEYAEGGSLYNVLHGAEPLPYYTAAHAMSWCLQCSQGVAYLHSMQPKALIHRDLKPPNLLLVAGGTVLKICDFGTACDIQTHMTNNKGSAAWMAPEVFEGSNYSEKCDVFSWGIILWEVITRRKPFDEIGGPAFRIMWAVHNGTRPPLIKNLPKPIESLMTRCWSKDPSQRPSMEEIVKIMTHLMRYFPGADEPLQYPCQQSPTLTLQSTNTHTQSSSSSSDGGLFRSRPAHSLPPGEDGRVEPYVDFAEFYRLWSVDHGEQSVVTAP
The following applies: ATP at Km; 30-minute pre-incubation; read-out: kinase inhibition in terms of IC50, TAK1-TAB1. The method in brief:
as §1

The target of assay [4] is T4, SYK (Homo sapiens, UniProt P43405).
T4 construct: purchased Nanosyn
Conditions: ATP at Km; 30-minute pre-incubation; read-out: kinase inhibition in terms of IC50, SYK. The essentials:
as §1

For `COc1cc2nccc(Oc3ccc(NC(=O)c4cc(S(C)(=O)=O)n(-c5ccc(F)cc5)n4)c(F)c3)c2cc1OC` [Ex71, N-(4-((6,7-dimethoxyquinolin-4-yl)oxy)-2-fluorophenyl)-1-(4-fluorophenyl)-5-(methylsulfonyl)-1H-pyrazole-3-carboxamide], the IC50 in assay [1] is not below 10 µM; in assay [2] it was less than 0.5 µM; in assay [3] it was not below 10 µM; in assay [4], not below 10 µM.

Regarding `COc1cc2nccc(Oc3ccc(NC(=O)c4cc(S(C)(=O)=O)n(-c5ccc(F)cc5)n4)cc3)c2cc1OC` [Ex72, N-(4-((6,7-dimethoxyquinolin-4-yl)oxy)phenyl)-1-(4-fluorophenyl)-5-(methylsulfonyl)-1H-pyrazole-3-carboxamide], the IC50 was not below 10 µM in assay [1], less than 0.5 µM in assay [2], not below 10 µM in assay [3] and 1 to 10 µM in assay [4].

Regarding `COc1cc2nccc(Oc3ccc(NC(=O)c4cc(S(C)(=O)=O)n(-c5ccc(F)cc5)n4)cc3F)c2cc1OC` [Ex73, N-(4-((6,7-dimethoxyquinolin-4-yl)oxy)-3-fluorophenyl)-1-(4-fluorophenyl)-5-(methylsulfonyl)-1H-pyrazole-3-carboxamide], the IC50 in assay [1] is not below 10 µM; in assay [2] it was less than 0.5 µM; in assay [3], not below 10 µM; in assay [4], not below 10 µM.
